# According to US10519247B2, “Targeting HER2 and HER3 with bispecific antibodies in cancerous cells” (Board of Regents, The University of Texas System, priority 2013, dated 2019):
# Legend:
# Assay type in all cases: cell-based, human
# [1] = test system: SK-BR-3 cells; assay: Immunoblotting of cell lysates, SK-BR-3
# Protocol: (§1) Cells cultured to near confluence in 6 well plates were treated with lapatinib, HRG-β1 or antibodies as for proliferation assays. Following one or 24 hours incubation, cells were lysed using RIPA buffer (50 mM Tris, 150 mM NaCl, 0.5% sodium deoxycholate, 1% Triton X-100, 0.1% sodium dodecyl sulfate, 2 ug/mL aprotinin, 2 ug/mL leupeptin, 1 ug/mL pepstatin A, and 0.4 mg/mL pefabloc SC PLUS). Lysates were centrifuged for 20 minutes at 14,600 rpm at 4° C. and supernatants were collected. Protein concentrations in each lysate were determined using the BCA protein assay reagent (Pierce, catalog no. 23223). Total lysates were fractionated by SDS-PAGE and transferred onto polyvinylidene difluoride (PVDF) membranes (Millipore, catalog no. IPVH00010) or nitrocellulose membranes (Bio-Rad, catalog no 162.0145). Membranes were incubated with 5% bovine serum albumin in Tris-buffered saline with 0.1% Tween (TBST, pH 8.0) for 1 hour following transfer to block non-specific binding sites. Blocked membranes were incubated with primary antibodies overnight at 4° C. with agitation. Prior to incubation with the secondary antibodies conjugated to horseradish peroxidase, blots were washed three times (10 minutes/wash) with TB ST. Following incubation with secondary antibodies for 1 hour and washing, bound secondary antibody was detected using chemiluminescent detection regent (GE Healthcare, catalog no. RPN 2209/AF).
# [2] = test system: BT-474 cells; assay: Immunoblotting of cell lysates, BT-474
# Protocol: as §1
# [3] = test system: SK-BR-3 cells; assay: Proliferation assay (MTS), SK-BR-3; settings: 5 days
# Protocol: (§2) Cells were plated in 96 well plates at a density of 2,500 cells per well and incubated overnight. […] Antibodies were used at a concentration of 50 nM unless otherwise indicated. Dimethyl sulfoxide or phosphate buffered saline (PBS) were used as vehicle controls for lapatinib or HRG-β1/antibodies, respectively. After 5 days of incubation in a 37° C. 5% CO2 incubator, cell proliferation was quantitated using CellTiter 96 AQeous One Solution Proliferation Assay kit (Promega, catalog no. G3580) according to the manufacturer's instructions.
# [4] = test system: BT-474 cells; assay: Proliferation assay (MTS), BT-474; settings: 5 days
# Protocol: as §2
# [5] = test system: BT-474 cells; assay: Flow cytometry of cell surface HER2 and HER3, BT-474; settings: 1 μM lapatinib, 24 hours
# Protocol: (§3) Cells were treated with 1 μM lapatinib (Lap), medium (Med) or vehicle control (DMSO) for 24 hours.
# (§4) The methodology used to determine HER2 and HER3 levels by flowcytometry is as follows, unless otherwise indicated. Antibodies were labeled with either Alexa Fluor® 647 carboxylic acid, succinimidyl ester (Life Technologies, Catalog # A-20173) or Alexa Fluor® 488 carboxylic acid, succinimidyl ester (Life Technologies, Catalog # A-10235) using methods recommended by the manufacturer. Following the labeling reaction, antibodies were extensively dialyzed against PBS to remove unincorporated Alexa dye. Cells were seeded at a density of 100,000 cells per well in 24 well plates, incubated overnight, and subsequently treated with either 1 μM lapatinib or vehicle control (DMSO) for 24 hours at 37° C. in a CO2 incubator. […] Following incubation, cells were trypsinized, washed, and suspended in PBS. Stained cells were analyzed using a BD FACScalibur and data processed using FlowJo (Tree Star).
# [6] = test system: SK-BR-3 cells; assay: Flow cytometry of cell surface HER2 and HER3, SK-BR-3; settings: 1 μM lapatinib, 24 hours
# Protocol: as §3, §4
# [7] = test system: HCC1419 cells; assay: Proliferation assay (MTS), HCC1419; settings: 5 days
# Protocol: as §2
# [8] = test system: SK-BR-3 cells; assay: Fluorescence microscopy of intracellular trafficking; settings: 50 nM
# Source text: The combined pulse plus chase times are indicated on the left margin. Anti-HER3 or HER2/HER3 antibodies were detected with Alexa 555-labeled secondary antibody (pseudocolored red in overlay) and anti-EEA-1 antibody with Alexa 647-labeled secondary antibody (pseudocolored green in overlay). […] Scale bars=2 μm.
# Cells were fixed, permeabilized and stained for LAMP-1. Anti-HER3 or HER2/HER3 antibodies were detected with Alexa 555-labeled secondary antibody (pseudocolored red in overlay) and anti-LAMP-1 antibody with Alexa 488-labeled secondary antibody (pseudocolored green in overlay). […] Scale bars=2 μm.
# For fixation, cells were treated with 1.7% (w/v) paraformaldehyde for 10 minutes at 37° C. and then permeabilized with 0.05% (v/v) saponin for 10 minutes at room temperature in PBS. […] After blocking for 30 minutes with goat serum (Sigma-Aldrich, catalog no. G6767), bound primary antibodies were detected by incubating cells with the following secondary antibody conjugates for 25 minutes at room temperature: Alexa 555-labeled goat anti-human IgG (H+L) (Life Technologies, catalog no. A21433), Alexa 647-labeled goat anti-mouse IgG (H+L) (Life Technologies, catalog no. A21236) and Alexa 488-labeled goat anti-rabbit IgG (H+L) (Life Technologies, catalog no. A11034). […]
# [9] = 1 μM lapatinib + heregulin 6.25 nM
# [10] = lapatinib 50 nM-1 μM, no heregulin
# [11] = 50 nM antibody + heregulin 6.25 nM
# [12] = 50 nM antibody, one hour, versus trastuzumab, pertuzumab, TAb6 or PAb6, not sustained at 24 hours
# [13] = 50 nM antibody + 1 μM lapatinib + heregulin 6.25 nM
# [14] = 50 nM antibody, no heregulin, no lapatinib
molecule,measurement,setting,value
"CS(=O)(=O)CCNCc1ccc(-c2ccc3ncnc(Nc4ccc(OCc5cccc(F)c5)c(Cl)c4)c3c2)o1 [lapatinib, reference compound]","inhibition of HER3, Akt and Erk phosphorylation, lapatinib plus heregulin",[1]; [9],partially reversed
same,"HER3, Akt and Erk phosphorylation, lapatinib alone","[1]; 1 μM lapatinib, 1 or 24 hours",potent inhibition
same,"inhibition of HER3, Akt and Erk phosphorylation, lapatinib plus heregulin",[2]; [9],partially reversed
same,"HER3, Akt and Erk phosphorylation, lapatinib alone","[2]; 1 μM lapatinib, 1 or 24 hours",potent inhibition
same,"proliferation, lapatinib alone",[3]; [10],inhibition of proliferation
same,"proliferation, lapatinib plus heregulin",[3]; lapatinib + heregulin 6.25 nM,growth inhibition was ablated
same,"proliferation, lapatinib alone",[4]; [10],inhibition of proliferation
same,"proliferation, lapatinib plus heregulin",[4]; lapatinib + heregulin 6.25 nM,growth inhibition was ablated
same,HER2 levels on the plasma membrane,[5],not upregulated
same,HER3 levels on the plasma membrane,[5],upregulation
same,HER2 levels on the plasma membrane,[6],upregulation
same,HER3 levels on the plasma membrane,[6],upregulation
heregulin [reference compound],proliferation in the presence of heregulin alone,[3]; [11],reduced proliferation
same,proliferation in the presence of heregulin alone,[4]; heregulin 6.25 nM,trend towards heregulin-stimulated proliferation
same,proliferation in the presence of heregulin alone,[7]; heregulin 6.25 nM,increased proliferation
"Ab6: bivalent anti-HER3 antibody which competes with heregulin for binding to HER3 (antibody, V domains shown) VH: QVQLLESGGGLVQPGGSLRLSCAASGFTFSHYVMAWVRQAPGKGLEWVSSISSSGGWTLYADSVKGRFTISRDNSKNTLYLQMNSLRAEDTAVYYCTRGLKMATIFDYWGQGTLVTVSS VL: DIQLTQPASVSGSPGQSITISCTGTSSDVGSYNVVSWYQQHPGKAPKLIIYEVSQRPSGVSNRFSGSKSGNTASLTISGLQTEDEADYYCCSYAGSSIFVIFGGGTKVTVL",pAkt levels in the presence of heregulin,"[1]; 50 nM antibody + heregulin 6.25 nM, 24 hours",a reduction
same,pErk levels at one hour,[1]; [12],lower
same,pErk levels at one hour,[2]; [12],lower
same,proliferation in the presence of heregulin and lapatinib,[3]; [13],anti-proliferative effects
same,proliferation,[3]; [14],reduced proliferation
same,proliferation in the presence of heregulin and lapatinib,[4]; [13],anti-proliferative effects
same,proliferation in the presence of heregulin,[4]; [11],ablated the inhibitory effects
same,proliferation,[4]; [14],the effects were not significant
same,localization following 15 minutes of treatment,[8],internalized into early endosomes
same,localization within one hour of treatment,"[8]; 15 minutes pulse, 45 minutes chase",present in LAMP-1+ lysosomes
same,proliferation in the presence of heregulin and lapatinib,[7]; [13],anti-proliferative effects
same,proliferation in the presence of heregulin,[7]; [11],ablated the inhibitory effects
same,proliferation,[7]; [14],reduced proliferation
